Reference: patent publication US4317824A, “Derivatives of quinoxaline-1,4-dioxides” (Abic, Ltd., priority 1976, dated 1982)
≈ marks a conversion by molar mass, not a printed value.

Tests used:
Staph. Aur. = assay: antimicrobial activity, minimal inhibitory concentration, Staph. Aur.; type: cell-based
Description: (§1) The antimicrobial activity of some compounds according to the present invention was measured and the results are shown in the following Tables. The activity is indicated as the minimal inhibitory concentration in μg/ml.

E. Coli [1] = assay: antimicrobial activity, minimal inhibitory concentration, E. Coli; type: cell-based; conditions: Escherichia coli
Description: as §1

E. Coli [2] = assay: E. Coli infections chick; type: in vivo; conditions: 50 mg/kg
Description: (§2) Some compounds of general formula Id were tested also in vivo.

E. Coli [3] = assay: U. Tract infections in mice (E. Coli); type: in vivo; conditions: U. Tract infections (E. Coli), 2,5 mg × 10 days
Description: as §2

B. Cereus = assay: antimicrobial activity, minimal inhibitory concentration, B. Cereus; type: cell-based; conditions: Bacillus cereus
Description: as §1

E. Coli [4] = assay: Systemic E. Coli infection in mice; type: in vivo; conditions: systemic E. Coli infection, 2,5 mg × 2 per day
Description: as §2

St. aur = assay: Systemic St. aur infection in mice; type: in vivo
Description: as §2

Salm. Typh. = assay: antimicrobial activity, minimal inhibitory concentration, Salm. Typh.; type: cell-based; conditions: read-out: minimal inhibitory concentration
Description: as §1

Mycoplasma gallisept = assay: antimicrobial activity, minimal inhibitory concentration, Mycoplasma gallisept; type: cell-based
Description: as §1

Proteus = assay: antimicrobial activity, minimal inhibitory concentration, Proteus; type: cell-based
Description: as §1

Crypt. Neof. = assay: antimicrobial activity, minimal inhibitory concentration, Crypt. Neof.; type: cell-based
Description: as §1

Trichophyt. Rubrum = assay: antimicrobial activity, minimal inhibitory concentration, Trichophyt. Rubrum; type: cell-based
Description: as §1

Pseud. Aur. = assay: antimicrobial activity, minimal inhibitory concentration, Pseud. Aur.; type: cell-based
Description: as §1

Cand. Alb. = assay: antimicrobial activity, minimal inhibitory concentration, Cand. Alb.; type: cell-based
Description: as §1

Shig. Flex. = assay: antimicrobial activity, minimal inhibitory concentration, Shig. Flex.; type: cell-based
Description: as §1

B. Subtilis = assay: antimicrobial activity, minimal inhibitory concentration, B. Subtilis; type: cell-based; conditions: Bacillus subtilis
Description: as §1

Aspergillus Niger = assay: antimicrobial activity, minimal inhibitory concentration, Aspergillus Niger; type: cell-based
Description: as §1

[5] = systemic St. aur infection, 2,5 mg × 2 per day

Compound | MIC (Staph. Aur.) [µg/mL] | MIC (E. Coli [1]) [µg/mL] | Protection (E. Coli [2]) | Protection (E. Coli [3]) | MIC (B. Cereus) [µg/mL] | Protection (E. Coli [4]) | Protection (St. aur; [5]) | MIC (Salm. Typh.) [µg/mL] | MIC (Mycoplasma gallisept) [µg/mL] | MIC (Proteus) [µg/mL] | MIC (Crypt. Neof.) [µg/mL] | MIC (Trichophyt. Rubrum) [µg/mL] | MIC (Pseud. Aur.) [µg/mL] | MIC (Cand. Alb.) [µg/mL] | MIC (Shig. Flex.) [µg/mL] | MIC (B. Subtilis) [µg/mL] | MIC (Aspergillus Niger) [µg/mL] | Protection (St. aur; systemic St. aur infection, 5 mg × 2 per day)
CN(C)C(=NO)c1c[n+]([O-])c2ccccc2[n+]1[O-] [Example 30, 2-(dimethylamino)-carboxaldoxime-quinoxaline-1,4-dioxide] | 10 (≈ 40.3 µM) | 10 (≈ 40.3 µM) | + (indicates protection >80%) | + (indicates protection >80%) | 50 (≈ 201 µM) | + (indicates protection >80%) | +/- (indicates protection 50-80%) | – | – | – | – | – | – | – | – | – | – | –
CNC(=NO)c1c[n+]([O-])c2ccccc2[n+]1[O-] [Example 18 (methylamino), 2-(N-methylamino)-carboxaldoxime-quinoxaline-1,4-dioxide] | 10 (≈ 42.7 µM) | 25 (≈ 107 µM) | + (indicates protection >80%) | – | 25 (≈ 107 µM) | + (indicates protection >80%) | + (indicates protection >80%) | 25 (≈ 107 µM) | 10 to 20 (≈ 42.7 to 85.4 µM) | 11 to 100 (≈ 47 to 427 µM) | – | – | – | – | – | – | – | –
CN1CCN(NC(=NO)c2c[n+]([O-])c3ccccc3[n+]2[O-])CC1 | 50 (≈ 157 µM) | 25 (≈ 78.5 µM) | – | – | 50 (≈ 157 µM) | – | – | – | 2 (≈ 6.28 µM) | 11 to 100 (≈ 34.6 to 314 µM) | 10 to 25 (≈ 31.4 to 78.5 µM) | 25 (≈ 78.5 µM) | 11 to 100 (≈ 34.6 to 314 µM) | 25 (≈ 78.5 µM) | – | – | – | –
COC(=NO)c1c[n+]([O-])c2ccccc2[n+]1[O-] [Example 17 (methoxy), 2-(α-methoxy)-carboxaldoxime-quinoxaline-1,4-dioxide] | 10 (≈ 42.5 µM) | 10 (≈ 42.5 µM) | – | – | 10 (≈ 42.5 µM) | – | – | – | 2 to 10 (≈ 8.5 to 42.5 µM) | – | – | – | – | – | 11 to 100 (≈ 46.8 to 425 µM) | 11 to 100 (≈ 46.8 to 425 µM) | – | –
[O-][n+]1cc(C(=NO)NN2CCOCC2)[n+]([O-])c2ccccc21 [drawing 8] | – | – | - (indicates protection <50%) | – | – | + (indicates protection >80%) | + (indicates protection >80%) | – | – | – | – | – | – | – | – | – | – | –
CCCNC(=NO)c1c[n+]([O-])c2ccccc2[n+]1[O-] [Example 20, 2-(propylamino)-carboxamidoxime-quinoxaline-1,4-dioxide] | 10 (≈ 38.1 µM) | 25 (≈ 95.3 µM) | – | + (indicates protection >80%) | 25 (≈ 95.3 µM) | + (indicates protection >80%) | – | 25 (≈ 95.3 µM) | 25 to 50 (≈ 95.3 to 191 µM) | 11 to 100 (≈ 41.9 to 381 µM) | 11 to 100 (≈ 41.9 to 381 µM) | 11 to 100 (≈ 41.9 to 381 µM) | 10 (≈ 38.1 µM) | 11 to 100 (≈ 41.9 to 381 µM) | – | – | 11 to 100 (≈ 41.9 to 381 µM) | - (indicates protection <50%)
Cc1cc2c(cc1C)[n+]([O-])c(C(Cl)=NO)c[n+]2[O-] [Example 9, 2-(α-chloro)-carboxaldoxime-6.7-dimethyl-quinoxaline-1,4-dioxide] | 11 to 100 (≈ 41.1 to 374 µM) | > 100 | – | – | 11 to 100 (≈ 41.1 to 374 µM) | – | – | > 100 | – | – | – | 11 to 100 (≈ 41.1 to 374 µM) | – | – | > 100 | > 100 | – | –
CCOC(=NO)c1c[n+]([O-])c2ccccc2[n+]1[O-] [Example 17 (ethoxy), 2-(α-ethoxy)-carboxaldoxime-quinoxaline-1,4 dioxide] | 10 (≈ 40.1 µM) | 11 to 100 (≈ 44.1 to 401 µM) | – | – | – | – | – | 11 to 100 (≈ 44.1 to 401 µM) | – | – | – | – | – | – | 11 to 100 (≈ 44.1 to 401 µM) | 11 to 100 (≈ 44.1 to 401 µM) | – | –
[O-][n+]1cc(C(=NO)NN2CCOCC2)[n+]([O-])c2ccccc21 [drawing 5] | 11 to 100 (≈ 36 to 328 µM) | – | – | – | – | – | – | – | – | – | – | 1 (≈ 3.28 µM) | – | – | – | 11 to 100 (≈ 36 to 328 µM) | – | –
CCNC(=NO)c1c[n+]([O-])c2ccccc2[n+]1[O-] [Example 18, 2-(N-ethylamino)-carboxamidoxime-quinoxaline-1,4-dioxide] | 10 (≈ 40.3 µM) | 25 (≈ 101 µM) | – | – | 25 (≈ 101 µM) | + (indicates protection >80%) | +/- (indicates protection 50-80%) | 25 (≈ 101 µM) | 10 to 25 (≈ 40.3 to 101 µM) | 11 to 100 (≈ 44.3 to 403 µM) | – | – | – | – | – | – | – | –
CCC(=O)ON=C(Cl)c1c[n+]([O-])c2ccc(Cl)cc2[n+]1[O-] [Example 10, 2-(α-chloro-0-propionyl)-carboxaldoxime-7-chloro-quinoxaline-1,4-dioxide] | 11 to 100 (≈ 33.3 to 303 µM) | – | – | – | – | – | – | – | – | – | 1 (≈ 3.03 µM) | 1 (≈ 3.03 µM) | – | 1 (≈ 3.03 µM) | – | 11 to 100 (≈ 33.3 to 303 µM) | – | –
CC(=O)ON=C(Cl)c1c[n+]([O-])c2ccc(Cl)cc2[n+]1[O-] [Example 11, 2-[α-chloro-(0-acetyl)-carboxaldoxime]-7-chloro-quinoxaline-1,4-dioxide] | 11 to 100 (≈ 34.8 to 316 µM) | – | – | – | – | – | – | – | – | – | 2 (≈ 6.33 µM) | 2 (≈ 6.33 µM) | – | 1 (≈ 3.16 µM) | 11 to 100 (≈ 34.8 to 316 µM) | 11 to 100 (≈ 34.8 to 316 µM) | – | –
O=C(CCl)ON=C(Cl)c1c[n+]([O-])c2ccccc2[n+]1[O-] [Example 13, 2-[α-chloro-(0-chloroacetylcarboxaldoxime)]-quinoxaline-1,4-dioxide] | 20 (≈ 63.3 µM) | 25 (≈ 79.1 µM) | – | – | 25 (≈ 79.1 µM) | – | – | 50 (≈ 158 µM) | 25 (≈ 79.1 µM) | – | – | 11 to 100 (≈ 34.8 to 316 µM) | – | – | 11 to 100 (≈ 34.8 to 316 µM) | 11 to 100 (≈ 34.8 to 316 µM) | – | –
